According to patent publication US20070060636A1, “High enantiomeric purity dexanabinol for pharmaceutical compositions” (priority 2002, published 2007):
Where two headings read alike, the source gives them in different places.

What was measured:
[1] = toxicology studies, single and/or multiple i.v. doses; format: in vivo, rats, rabbits, and monkeys
Method: In order to support the i.v. testing of dexanabinol of high enantiomeric purity in humans, a series of acute single-dose and sub-chronic multiple dose toxicology studies were conducted to establish the safety profile of the compound in rats, rabbits, and monkeys. The 2-week and 4-week multidose studies included complete clinical and morphological evaluations. In vitro/in vivo mutagenicity studies and special toxicological evaluations have also been carried out to evaluate the safety profile of dexanabinol. The toxicology studies employed doses that were multiples of the proposed clinical doses.

[2] = 14-day multiple dose pharmacokinetic/toxicity study, rat; format: in vivo, rats; details: for AUC∞ Ratio to Phase I / Cmax Ratio to Phase I / AUC∞ Ratio to Phase II / Cmax Ratio to Phase II: 15 mg/kg Day 14; for AUC∞ Ratio to Phase I / Cmax Ratio to Phase I: vs human 150 mg Phase I; for AUC∞ Ratio to Phase II / Cmax Ratio to Phase II: vs human 150 mg Phase II
Method: (§1) The pharmacokinetics of dexanabinol of high enantiomeric purity formulated in CREMOPHOR EL®:ethanol as described in Example 4 were investigated in rats, rabbits, and monkeys following intravenous administration of single doses, and 14 and 28 days of repeated dosing. Human pharmacokinetics was studied during Phase I and Phase II clinical studies. Dexanabinol used in the pharmacokinetic studies was formulated as drug concentrates of 50 and 100 mg/ml and diluted with sterile 0.9% NaCl solution prior to intravenous (i.v.) administration to the desired final doses. Determination of dexanabinol concentrations in plasma and brain extracts was carried out using a validated Gas Chromatography-Mass Spectra (GC-MS) assay following solid phase extraction of the drug and derivatization. The limit of quantitation of the assay is 0.1 ng/ml.
(§2) Pharmacokinetic parameters were estimated by a non-compartmental method using WinNonlin Professional version 3.2 (Pharsight Corp., Mountain View, Calif.). The maximum plasma concentration (Cmax), when the drug is administered by infusion, is the concentration at the end of infusion. The Cmax following intravenous bolus administration is the value estimated by the software to be the concentration at t=0. The terminal slope (X) was estimated by linear regression through the last time points and used to calculate the terminal half-life (t1/2) from the following equation: t1/2=0.693/λ The area under the curve from time of dosing through the last time point (AUCz) was calculated by the linear trapezoid method. The AUC extrapolated to infinity (AUC∞) was calculated from the following equation: AUC∞=AUCz+Cz/λ where Cz is the concentration at the last time point predicted by the linear regression. AUC∞ was normalized for dose (mg/kg) and presented as AUC∞/Dose. Mean residence time (MRT), when the drug is administered by infusion is described by the following equation: MRT=(AUMC/AUC)−(TI)/2 Mean residence time after i.v. bolus administration is described by the following equation: MRT=(AUMC/AUC) where AUMC is the area under the first moment curve and TI is the length of infusion. Plasma clearance (CL), and the apparent volume of distribution at steady state (Vss) were calculated from the following equations: CL=Dose/AUC∞ Vss=MRT×CL
(§3) In 14-day multiple dose pharmacokinetic studies, the NOAEL was 15 mg/kg/day in rats and 25 mg/kg/day in rabbits. In a 28-day study in monkeys the NOAEL was 25 mg/kg/day. Cmax and AUC observed following the last dose at the NOAEL in the multiple dose toxicity studies and the ratios of these values to those observed in the Phase I and II studies for the 150 mg dose are shown in Table 7.

[3] = 28-day multiple dose study, monkey; format: in vivo, monkeys; details: for AUC(0-inf) / Cmax: plasma, 25 mg/kg i.v. daily, final dose Day 28 (NOAEL); for AUC∞ Ratio to Phase I / Cmax Ratio to Phase I / AUC∞ Ratio to Phase II / Cmax Ratio to Phase II: 25 mg/kg Day 28; for AUC∞ Ratio to Phase I / Cmax Ratio to Phase I: vs human 150 mg Phase I; for AUC∞ Ratio to Phase II / Cmax Ratio to Phase II: vs human 150 mg Phase II
Method: as §1, §2, §3

[4] = 2nd Phase I study, single i.v. dose 48 or 150 mg, healthy male volunteers; format: in vivo, human; details: for AUC∞/Dose: normalized for dose (mg/kg); for clearance / Cmax / MRT / AUC / AUC(0-inf) / half-life / Vd: male, human, plasma; for Vd: read-out: Vss
Method: as §2
A second human Phase I study involving 24 healthy male volunteers was carried out to compare the pharmacokinetics of dexanabinol following a single i.v. dose of 48 mg or 150 mg. The subjects were divided into two groups of 12 subjects each. Each group was premedicated with ATOSIL® 25 mg (Promethazine H1 blocker), and ZANTAC® 50 mg (Ranitidine H2 blocker) intravenously, followed 15 minutes later by a single short intravenous infusion of dexanabinol lasting 15 minutes. Blood samples for pharmacokinetic assays for dexanabinol were collected immediately before premedication (T=0), immediately after dosing (T=0+) (at the end of the infusion), at 5, 10, 20, 30, 45, and 60 min, and 2, 4, 6, 8, 12, 16, 24, 48, 72 and 96 hr post-dosing. Blood was also collected from four subjects from group 2 ([…]) on Days 6, 10 and 14. For both dose levels, initial rapid declines in plasma concentration followed by a progressively slower decline were observed.
Pharmacokinetic parameters were estimated by non-compartmental methods up to 96 hr post-infusion, using WinNonlin Professional version 3.2 (Pharsight Corp., Mountain View, Calif., USA).

[5] = plasma, iv, rat female, 15 mg/kg i.v. daily, final dose Day 14 (NOAEL)
[6] = plasma, iv, rat male, 15 mg/kg i.v. daily, final dose Day 14 (NOAEL)
[7] = both sexes, iv, monkey male & female
[8] = human Phase I, 150 mg single i.v., reference itself
[9] = iv, 48 mg single i.v. infusion, healthy volunteers, mean ± SE
[10] = iv, 48 mg single i.v. infusion, healthy volunteers, mean ± SE, up to 96 hr
[11] = iv, 150 mg single i.v. infusion, healthy volunteers, mean ± SE
[12] = iv, 150 mg single i.v. infusion, healthy volunteers, mean ± SE, up to 96 hr

Question: What does the source list for `CCCCCCC(C)(C)c1cc(O)c2c(c1)OC(C)(C)[C@H]1CC=C(CO)C[C@H]21` [dexanabinol, 1,1-dimethylheptyl-(3S,4S)-7-hydroxy-Δ^6-tetrahydrocannabinol]?
Answer: tolerability ([1]; CREMOPHOR EL:ethanol formulation, single and/or multiple i.v. doses in rats, rabbits and monkeys): generally well tolerated; psychomimetic side effect ([1]; at dose tested, any of the animal species tested): no psychomimetic side effect; AUC(0-inf) [2, 5]: 58600 ng·h/mL; Cmax at 14 days [2, 5]: 17400 ng/mL; AUC(0-inf) [2, 6]: 32700 ng·h/mL; Cmax [2, 6]: 30200 ng/mL; AUC∞ Ratio to Phase I ([2]; rat female): 18.3; Cmax Ratio to Phase I ([2]; rat female): 3.5; AUC∞ Ratio to Phase II ([2]; rat female): 39.5; Cmax Ratio to Phase II ([2]; rat female): 8.8; AUC∞ Ratio to Phase I ([2]; rat male): 10.2; Cmax Ratio to Phase I ([2]; rat male): 6.0; AUC∞ Ratio to Phase II ([2]; rat male): 22.1; Cmax Ratio to Phase II ([2]; rat male): 15.4; NOAEL at 14 days ([2]; rat, in vivo, iv, 14-day multiple dose i.v.): 15 mg/kg/day; AUC(0-inf) [3, 7]: 193 µg·h/mL; Cmax [3, 7]: 162 µg/mL; AUC∞ Ratio to Phase I ([3]; monkey female): 55.5; Cmax Ratio to Phase I ([3]; monkey female): 32.2; AUC∞ Ratio to Phase II ([3]; monkey female): 120.0; Cmax Ratio to Phase II ([3]; monkey female): 81.9; AUC∞ Ratio to Phase I ([3]; monkey male & female): 60.2; Cmax Ratio to Phase I ([3]; monkey male & female): 32.4; AUC∞ Ratio to Phase II ([3]; monkey male & female): 130.2; Cmax Ratio to Phase II ([3]; monkey male & female): 82.5; AUC∞ Ratio to Phase I ([3]; monkey male): 64.9; Cmax Ratio to Phase I ([3]; monkey male): 32.6; AUC∞ Ratio to Phase II ([3]; monkey male): 140.4; Cmax Ratio to Phase II ([3]; monkey male): 83.0; NOAEL at 28 days ([3]; monkey, in vivo, iv, 28-day study i.v.): 25 mg/kg/day; AUC(0-inf) ([3]; iv, monkey female): 178 µg·h/mL; Cmax ([3]; iv, monkey female): 161 µg/mL; AUC(0-inf) ([3]; iv, monkey male): 208 µg·h/mL; Cmax ([3]; iv, monkey male): 163 µg/mL; 30 min plasma values as % of the end of infusion levels ([4]; 48 mg and 150 mg): about 11%; AUC∞/Dose ([4]; 48 mg single i.v. infusion, healthy volunteers, mean ± SE): 78,137 ± 4,305 ng × min/ml; AUC∞/Dose ([4]; 150 mg single i.v. infusion, healthy volunteers, mean ± SE): 93,408 ± 4,224 ng × min/ml; AUC∞ Ratio to Phase I [4, 8]: 1.0; Cmax Ratio to Phase I [4, 8]: 1.0; clearance ([4]; intravenous, 48 mg and 150 mg, read-out: Total plasma clearance (CL), average across the two dose groups): 12 mL/min/kg; Cmax ([4]; intravenous, after the 48 mg dose (0.63 mg/kg), read-out: Maximum plasma concentrations (Cmax)): 1230 ng/mL; Cmax ([4]; intravenous, at 150 mg (2.05 mg/kg), read-out: Maximum plasma concentrations (Cmax)): 5000 ng/mL; MRT [4, 9]: 8.4 ± 0.5 h; AUC [4, 10]: 811 ng·h/mL; AUC(0-inf) [4, 10]: 824 ng·h/mL; half-life [4, 10]: 1870 ± 216 min; Cmax ([4]; iv, 48 mg single i.v. infusion, healthy volunteers, mean ± SE, up to 96 hr, read-out: Cmax): 1230 ng/mL; clearance ([4]; iv, 48 mg single i.v. infusion, healthy volunteers, mean ± SE, read-out: CL): 13.2 ± 0.7 mL/min/kg; Vd [4, 9]: 6.6 ± 0.5 L/kg; MRT [4, 11]: 6.9 ± 0.4 h; AUC [4, 12]: 3180 ng·h/mL; AUC(0-inf) [4, 12]: 3210 ng·h/mL; half-life [4, 12]: 1400 ± 108 min; Cmax ([4]; iv, 150 mg single i.v. infusion, healthy volunteers, mean ± SE, up to 96 hr, read-out: Cmax): 5010 ng/mL; clearance ([4]; iv, 150 mg single i.v. infusion, healthy volunteers, mean ± SE, read-out: CL): 10.9 ± 0.5 mL/min/kg; Vd [4, 11]: 4.5 ± 0.4 L/kg; safety in human subjects ([4]; the two phase I studies): safe, well tolerated and no psychomimetic side effects were detected
